{
  "source": "patent US7501281B2",
  "about": "“Compositions, methods and kits related to thrombin, Notch signaling and stamatogenesis and growth of stem cells” (Maine Medical Center Research Institute, priority 2003, dated 2009)",
  "biological_target": "T1, human Jagged1 (Homo sapiens, UniProt P78504, A1171G)",
  "T1 construct": "full-length Jagged1 was in vitro transcribed and translated; made in house; host or cells: cell-free: T7-coupled reticulocyte lysate in vitro transcription/translation system (Promega)",
  "T1 sequence (P78504 34-1218 A1171G)": "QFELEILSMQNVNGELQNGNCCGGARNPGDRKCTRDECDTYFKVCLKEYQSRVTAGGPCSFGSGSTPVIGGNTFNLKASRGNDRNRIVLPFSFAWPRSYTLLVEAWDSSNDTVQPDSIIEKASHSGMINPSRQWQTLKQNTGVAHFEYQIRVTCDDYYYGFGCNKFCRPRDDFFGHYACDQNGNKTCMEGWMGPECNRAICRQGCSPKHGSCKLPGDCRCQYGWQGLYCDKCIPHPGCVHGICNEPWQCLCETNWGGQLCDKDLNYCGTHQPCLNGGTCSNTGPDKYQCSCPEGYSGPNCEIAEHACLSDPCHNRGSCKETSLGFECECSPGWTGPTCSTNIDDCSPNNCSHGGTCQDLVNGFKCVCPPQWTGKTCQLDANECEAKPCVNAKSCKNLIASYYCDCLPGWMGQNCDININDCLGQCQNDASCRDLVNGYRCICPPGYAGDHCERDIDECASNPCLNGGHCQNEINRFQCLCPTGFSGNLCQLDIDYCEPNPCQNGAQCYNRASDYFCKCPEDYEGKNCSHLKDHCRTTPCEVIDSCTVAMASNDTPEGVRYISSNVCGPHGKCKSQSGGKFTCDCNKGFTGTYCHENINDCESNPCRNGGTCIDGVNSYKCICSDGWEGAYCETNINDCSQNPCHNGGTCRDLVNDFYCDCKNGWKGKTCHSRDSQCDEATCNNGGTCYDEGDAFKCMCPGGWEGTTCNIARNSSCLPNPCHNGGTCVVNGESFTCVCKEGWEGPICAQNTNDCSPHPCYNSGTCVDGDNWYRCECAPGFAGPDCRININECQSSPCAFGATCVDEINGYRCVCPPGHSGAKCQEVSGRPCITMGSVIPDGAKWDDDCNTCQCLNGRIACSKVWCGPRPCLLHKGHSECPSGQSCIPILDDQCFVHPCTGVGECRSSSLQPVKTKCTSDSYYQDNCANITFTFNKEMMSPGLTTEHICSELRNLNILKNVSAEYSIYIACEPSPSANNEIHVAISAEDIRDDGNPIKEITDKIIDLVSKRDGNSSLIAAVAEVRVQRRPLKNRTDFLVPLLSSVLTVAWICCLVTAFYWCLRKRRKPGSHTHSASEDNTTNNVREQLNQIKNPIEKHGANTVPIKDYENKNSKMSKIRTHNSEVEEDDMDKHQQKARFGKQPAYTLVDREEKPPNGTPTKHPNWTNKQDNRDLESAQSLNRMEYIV",
  "assay": "Thrombin cleavage of in vitro translated Jagged1 and Edman microsequencing",
  "format": "biochemical",
  "experimental": "A plasmid containing human Jagged1 (Zimrin et al., 1996, J. Biol. Chem. 271:32499-32502) was in vitro transcribed and in vitro translated in the presence of a (^35S)-Met/Cys protein-labeling mixture (Amersham) using the T7-coupled reticulocyte lysate system according to the manufacturer's instructions (Promega) in a total volume of 50 μl. After 60 minutes incubation at 30° C., 0.05% DTT was added, half of the reaction mixture incubated with 10 μg α-thrombin for 15 minutes at 37° C., and the reaction stopped by boiling in the presence of SDS-PAGE sample buffer. The samples were resolved by 12% SDS-PAGE, transferred to a nitrocellulose membrane, and analyzed by autoradiography. […] The products of each cycle were collected prior to resolution by HPLC, added to liquid scintillation fluid (Beckman) and the (^35S) samples quantitated by liquid scintillation spectroscopy (Beckman).\nIn an attempt to further define this pathway and the role that sJ1 might play in the regulation of cell proliferation, it was assessed if the Jagged1 translation product was susceptible to proteolytic cleavage by thrombin. […] The Jagged1 transcript was translated in vitro in the presence of (^35S)-Cys, resolved by SDS-PAGE, the 95 kDa fragment excised, subjected to automated Edman chemistry and the products of each cycle monitored by liquid scintillation spectroscopy. […]",
  "data": [
    {"substance": "Thrombin", "values": [
      {"measurement": "Jagged1 cleavage site", "setting": "Edman microsequencing of the 95 kDa fragment", "result": "between residues R348 and G349"},
      {"measurement": "cleavage products of the 134 kDa Jagged1 translation product", "setting": "α-thrombin 15 minutes at 37° C.", "result": "cleavage of the full-length Jagged1 protein into 39 kDa and 95 kDa fragments"}
    ]}
  ]
}
